Values quoted from earlier work, collected in patent US12482537B2, “System of predicting sensitivity of Klebsiella against MeropeneM and method” (priority 2023, dated 2025).

Tested on: carbapenem resistant Klebsiella pneumoniae
Settings: isolates from 2014 to 2017 (252/403)

Structure (SMILES): C[C@@H](O)[C@H]1C(=O)N2C(C(=O)O)=C(S[C@@H]3CN[C@H](C(=O)N(C)C)C3)[C@H](C)[C@H]12 [Meropenem]
- resistance rate against meropenem: 62.5%
